Data set [1] concerns the target T1, 1321N1-hP2X3 receptor (Homo sapiens, UniProt P56373).
T1 construct: host or cells: 1321N1
T1 sequence (P56373 1-397): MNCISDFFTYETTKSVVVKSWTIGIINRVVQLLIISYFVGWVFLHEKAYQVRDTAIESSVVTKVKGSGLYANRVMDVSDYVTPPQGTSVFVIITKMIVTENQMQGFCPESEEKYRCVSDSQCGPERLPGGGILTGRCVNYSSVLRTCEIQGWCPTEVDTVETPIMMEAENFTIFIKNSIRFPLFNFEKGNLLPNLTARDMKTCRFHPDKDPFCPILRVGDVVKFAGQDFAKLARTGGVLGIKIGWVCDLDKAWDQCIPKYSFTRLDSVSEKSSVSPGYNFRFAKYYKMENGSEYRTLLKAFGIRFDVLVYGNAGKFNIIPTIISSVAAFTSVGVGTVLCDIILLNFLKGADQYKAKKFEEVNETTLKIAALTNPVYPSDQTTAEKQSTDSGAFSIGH
Put plainly: Calcium ion mobility (FLIPR) in cells stably expressing 1321N1-hP2X3 receptors. The note with it: calcium signal, agonist at EC80. The class given is cell-based. The protocol:
Test Example 1. Determination of the Effect of the Compounds of the Present Invention on Calcium Ion Mobility in Cells Stably Expressing 1321N1-hP2X3 Receptors
To determine the inhibitory activity of the compounds on 1321N1-hP2X3 receptor.
Stably transfected cell line: 1321N1-hP2X3 (supplied by Shanghai ChemPartner Chemical Research Co., Ltd.).
Assay buffer: 1*HBSS+20 mM HEPES;
Cell culture medium: DMEM+10% FBS+75 µg/mL Hygromycin B+300 µg/mL G418;
Plating medium: DMEM+10% DPBS;
0.5*Dye: 10*Dye stock+1.25 Probenecid+1*assay buffer+0.5 U/mL ATP hydrolytic enzyme;
2. The cells were cultured to 70%-90% confluency in the cell culture medium at 37° C., 5% CO2. The medium was discarded, and the cells were added with 2 mL of Versene, and the cells were placed in an incubator at 37° C. for 2 to 5 min. The cells were collected by addition of 10 mL of plating medium and counted. The cells were seeded to the 384-well assay plate by addition of 50 μL solution (a density of 1×10^4 cells/well) to each well, and incubated for 16 to 24 hours (at least overnight).
3. The medium was discarded, and 30 μL of 1× dye was added. The cells were incubated at 37° C. in the dark for 60 min.
4. The compound powder was dissolved in DMSO to obtain a 20 mM stock solution. 180× compound with required concentration was formulated, and diluted in gradient for concentration points.
5. Preparation of compound plate: 500 nL of 180× compound was transferred to the compound plate (source plate for FLIPR) using ECHO. 30 μL of assay buffer was added to each well, and the plate was shaken gently for 20 to 40 minutes.
6. Determination: 15 μL of 3× compound was taken from each well and added to the cell plate. The samples were added by FLIPR instrument, and the calcium signals were detected. After 15 minutes, 22.5 μL of 3× agonist (EC80 concentration) was added to each well and the calcium signals were detected.
The calcium signal values were determined by FLIPR. The ratio of the 340/510 nm wavelength signals to 380/510 nm wavelength signals was used as the calculated results for each sampling time point in the experiment. The calculation of maximum minus minimum was derived from the ratio signal curve.
The percent inhibition rate and ten-point concentration data were fitted to the parametric nonlinear logistic equation by using GraphPad prism to calculate the IC50 values of the compounds.

Data set [2] is described as follows: Metabolic stability in liver microsome (rat). The class given is in vitro ADME. The note with it: rat liver microsome 0.5 mg/mL, compound 1 μM; for half-life at 1 μM: liver microsomes. The protocol: Test Example 5. Assay of Metabolic Stability in Liver Microsome
The objective of the experiment is to determine the stability of the compounds of the Examples in liver microsome of mouse, rat, dog and human.
Formulation of the working solution of the compound: The stock solution of the compound was added to phosphate buffer, and the final concentration was 20 μM.
Liver microsome was diluted with 100 mM phosphate buffer to obtain a final concentration of 0.625 mg/mL.
NADPH (reduced nicotinamide adenine dinucleotide phosphate) and UDPGA (uridine diphosphate glucuronic acid) were weighed respectively, followed by addition of 100 mM phosphate buffer. The final concentrations were 20 mM.
1 mg of Alamethicin was weighed, to which 200 μL of DMSO was added to obtain a 5 mg/mL solution. The solution was diluted with phosphate buffer to obtain a final concentration of 50 μg/mL.
2.5 Formulation of the reaction stop solution Stop solution: Cold acetonitrile containing 100 ng/mL labetalol hydrochloride and 400 ng/mL tolbutamide as internal standards.
400 μL of the prepared liver microsome, 25 μL of the working solution of the compound and 25 μL of Alamethicin were added to a 96-well plate successively, which was then pre-incubated at 37° C. for 10 min. 50 μL of the prepared NADPH/UDPGA was added to initiate the reaction, and the plate was incubated at 37° C. The total volume of the reaction system was 500 μL. The final contents of the components were as follows: […]

Structures are written as SMILES. pIC50: −log10 of the molar value.

In the case of `CCc1cc2n(CC(=O)Nc3ccc(F)cn3)c(=O)c3ccc(C(F)(F)F)nc3n2n1` [Example 34, 2-(2-Ethyl-5-oxo-8-(trifluoromethyl)pyrazolo[1,5-a]pyrido[3,2-e]pyrimidin-4(5H)-yl)-N-(5-fluoropyridin-2-yl)acetamide], the pIC50 in data set [1] was 7.20. Besides, the half-life at 1 μM in data set [2] (NADPH/UDPGA) amounted to 28.9 h. In addition, the “Remaining (%, 60 min)” value in data set [2] was 104.4%.

Consider `O=C(Cn1c(=O)c2ccc(C(F)(F)F)nc2n2nc(Br)cc12)Nc1ccc(F)cn1` [Example 61-A, 2-(2-bromo-5-oxo-8-(trifluoromethyl)pyrazolo[1,5-a]pyrido[3,2-e]pyrimidin-4(5H)-yl)-N-(5-fluoropyridin-2-yl)acetamide], for which the pIC50 in data set [1] was 7.12. In data set [2] (NADPH/UDPGA), this molecule returned a half-life at 1 μM of 15.7 h. Besides, in data set [2], the “Remaining (%, 60 min)” value stood at 102.3%.

With `N#Cc1cc2n(CC(=O)Nc3ccc(F)cn3)c(=O)c3ccc(C(F)(F)F)nc3n2n1` [Example 68, 2-(2-Cyano-5-oxo-8-(trifluoromethyl)pyrazolo[1,5-a]pyrido[3,2-e]pyrimidin-4(5H)-yl)-N-(5-fluoropyridin-2-yl)acetamide], the pIC50 in data set [1] was 7.49. Further, in data set [2], the “Remaining (%, 60 min)” value is given as 106.4%. Besides, the t1/2 entry in data set [2] (NADPH/UDPGA) is on record as “∞”.

Consider `O=C(Cn1c(=O)c2ccc(C(F)(F)F)nc2n2nccc12)Nc1ccc(F)cn1` [Example 78, N-(5-Fluoropyridin-2-yl)-2-(5-oxo-8-(trifluoromethyl)pyrazolo[1,5-a]pyrido[3,2-e]pyrimidin-4(5H)-yl)acetamide], for which, in data set [1], the pIC50 was 7.31. The half-life at 1 μM in data set [2] (NADPH/UDPGA) was found to be 32.7 h. In addition, the “Remaining (%, 60 min)” value in data set [2] stood at 98.9%.

With `N#Cc1cnn2c3nc(C(F)(F)F)ccc3c(=O)n(CC(=O)Nc3ccc(F)cn3)c12` [Example 80, 2-(3-Cyano-5-oxo-8-(trifluoromethyl)pyrazolo[1,5-a]pyrido[3,2-e]pyrimidin-4(5H)-yl)-N-(5-fluoropyridin-2-yl)acetamide], the pIC50 in data set [1] is 7.19.
